This is an account of results in patent EP4725957A1, “GROUP OF CYCLIC ALKALINE LIPOPEPTIDE COMPOUNDS, AND PREPARATION METHOD THEREFOR AND USE THEREOF” (Institute of Medicinal Biotechnology, Chinese Academy of …, priority 2023, dated 2024).

≈ marks a conversion by molar mass, not a printed value. Bridge positions count the residues as written; N and C are the ends. Square brackets hold non-standard residues; d marks the D form. Peptide text beside a SMILES is read from it. * marks the point of attachment. Heptanoyl(6-Me) = CC(C)CCCCC(=O)*; Sulfomethyl = O=S(=O)(O)C*; dOrn = NCCC[C@@H](N)C(=O)O; X1 = CC[C@H](C)CCCCC(=O)*; dDab = NCC[C@@H](N)C(=O)O; Heptanoyl = CCCCCCC(=O)*; Octanoyl = CCCCCCCC(=O)*; Orn = NCCC[C@H](N)C(=O)O; dDap = NC[C@@H](N)C(=O)O; Dab = NCC[C@H](N)C(=O)O; Dap = NC[C@H](N)C(=O)O

Holding throughout (type): cell-based
Data set [1] in a line: Nephrotoxicity assay: in vitro cytotoxicity of HK-2 cells by CCK-8 assay. Conditions: human, HK-2 cells (human renal), 72 h incubation with drug-containing medium. As to the method:
In vitro cytotoxicity detection of HK-2 cells was performed by the CCK-8 assay.
The culture medium for human renal HK-2 cells was a complete RPMI-1640 medium (Invitrogen) supplemented with 10% fetal bovine serum (FBS, Gibco). The cryopreservation solution was composed of 90% FBS and 10% dimethyl sulfoxide (DMSO), and the cells were preserved long-term in liquid nitrogen. Cells were cultured in a sterile incubator with a humidified atmosphere containing 5% CO2 at 37°C. When the cell density reached 70%-80%, cell digestion and subculture were conducted. The cyclic lipopeptide compounds prepared in Examples 1-120 were weighed and dissolved in sterile water to prepare a mother solution with a concentration of 1 mg/mL. Drug-containing culture media were then formulated, with the final concentrations set as 500, 250, 200, 100, 50, 25, and 12.5 µg/mL, respectively. Cells were adjusted to a density of 5 × 10^4 cells/mL and seeded into 96-well plates, with 100 µL of cell suspension added to each well. After stable incubation for 24 h, the original medium was replaced with the prepared drug-containing medium, and the plates were incubated in the incubator for an additional 72 h. The medium was gently aspirated, and 100 µL of blank medium containing 10% CCK-8 was added to each well. After incubation in the incubator for 3 h, the optical density (OD) values at 450 nm were measured using a BIOTEK microplate reader. The experiment was repeated three times. For each replicate, polymyxin B was set as the positive drug, and a drug-free blank group was established as the control. The cell viability (%) was calculated by the formula: Cell viability (%) = [(OD of drug-treated group - OD of zero-setting) / (OD of drug-free group - OD of zero-setting)] × 100%. The half-maximal inhibitory concentration (IC50) values were calculated through logarithmic regression analysis.
The cells used for the nephrotoxicity assay were obtained from the ATCC ( American Type Culture Collection). The Cell Counting Kit-8 (CCK-8) used in the assay was supplied by Beyotime Biotechnology Co., Ltd.
For orientation: Tetrazolium assays rely on reduction of a dye to a coloured formazan, in cell work by metabolically active cells.

Data set [2] relates to Acinetobacter baumannii ABA19-1. Conditions: ABA19-1. As to the method: (§1) The minimal inhibitory concentration (MIC) was determined by the broth microdilution method according to the recommended procedures of the Clinical and Laboratory Standards Institute (CLSI).
(§2) An appropriate amount of the cyclic lipopeptide compounds prepared in Examples 1-120 and the reference standards were weighed and dissolved in sterile pure water. An appropriate volume of the mother solution was subjected to ten-fold dilution with sterile Mueller-Hinton (MH) broth to a concentration of 0.256 mg/mL. Half of the drug solution was aliquoted into 96-well reagent reservoirs, while the other half was subjected to two-fold serial dilution with sterile MH broth before being transferred into deep-well reagent reservoirs. The above steps were repeated, so that the drug concentrations in the reagent reservoirs were adjusted to 128, 64, 32, 16, 8, 4, 2, 1, 0.5, 0.25, 0.125 and 0.06 mg/L in sequence, and all solutions were prepared and used immediately. Several colonies were picked from agar plates cultured for 18-24 h and directly suspended in sterile normal saline, and the concentration of the bacterial suspension was adjusted to 0.5 McFarland units. The calibrated bacterial suspension was diluted with MH broth to a concentration of (4-8) × 10^5 colony-forming units per milliliter (CFU/mL) and prepared and used immediately. A volume of 100 µL of the aforementioned compounds of the present disclosure (e.g., the compounds prepared in the examples) and reference solutions at different concentrations was separately pipetted into wells 1 to 12 of sterile 96-well polystyrene plates, and an additional 100 µL of the aforementioned inoculum was added to each well. The final concentrations of the samples in the wells were adjusted to 64, 32, 16, 8, 4, 2, 1, 0.5, 0.25, 0.125, 0.06 and 0.03 mg/L, respectively, and the final concentration of the inoculum in each well was (2-4) × 10^5 CFU/mL. Additional growth control wells were set up, each containing 100 µL of the inoculum and 100 µL of sterile MH broth. The test substances and inocula in all wells were mixed thoroughly and then sealed. The inoculated 96-well plates were incubated in an incubator at 35-37°C for 16-20 h.
(§3) The strains used for the antibacterial activity assay were obtained from the American Type Culture Collection (ATCC) and clinical isolates.
(§4) The strains employed for the antibacterial activity assay included Escherichia coli ATCC BAA-2523, ATCC BAA-2340 (KPC), Klebsiella pneumoniae KPN+19-15, ATCC BAA-1705 (KPC), Pseudomonas aeruginosa PAE19-3, ATCC 27853, Acinetobacter baumannii ABA19-1, and NCTC 13304 (OXA-27).

The test system of data set [3] is Escherichia coli ATCC BAA-2523. As to conditions: ATCC BAA-2523. As to the method:
as §1, §2, §3, §4

Data set [4] relates to Klebsiella pneumoniae KPN+19-15. As to conditions: KPN+19-15. As to the method:
as §1, §2, §3, §4

The test system of data set [5] is Acinetobacter baumannii NCTC 13304 (OXA-27). Conditions: NCTC 13304. As to the method:
as §1, §2, §3, §4

Data set [6] deals with Klebsiella pneumoniae ATCC BAA-1705 (KPC). Conditions: ATCC BAA-1705. As to the method: as §1, §2, §3, §4
In data set [7] the test system is Escherichia coli ATCC BAA-2340 (KPC). As to conditions: ATCC BAA-2340. As to the method: as §1, §2, §3, §4
Data set [8] has as its system Pseudomonas aeruginosa ATCC 27853. As to conditions: ATCC 27853. As to the method:
as §1, §2, §3, §4

Data set [9] concerns Pseudomonas aeruginosa PAE19-3. Conditions: PAE19-3. As to the method:
as §1, §2, §3, §4

As a reminder, the IC50 is the concentration that inhibits the measured activity by half. Higher therefore signals lower potency. For orientation: MIC means the lowest concentration that inhibits growth of the organism. `CC[C@H](C)CCCCC(=O)N[C@@H](CCN)C(=O)N[C@H](C(=O)N[C@H](CCN)C(=O)N[C@H]1CCNC(=O)[C@H]([C@@H](C)O)NC(=O)[C@H](CCN)NC(=O)[C@H](CCN)NC(=O)[C@H]([C@@H](C)O)NC(=O)[C@@H](Cc2ccccc2)NC(=O)[C@H](CCN)NC1=O)[C@@H](C)O` [Compound 11, (S)-6-methyloctanoyl-Dab-Thr-D-Dab-ring(4-10)[Dab-Dab-D-Phe-Thr-Dab-Dab-Thr]] (X1-[Dab]T[dDab][Dab][Dab][dF]T[Dab][Dab]T; lactam 4-C) yielded an IC50 at 72 h in data set [1] of 371 ± 54.6 µg/mL (≈ 311 µM). The MIC in [2], in [3], in data set [4], in [5], in [6] and in [7] was ≤0.03 µg/mL throughout. Besides, the MIC in [8] and in data set [9] was 1 µg/mL (≈ 0.839 µM) each time.

On to `CC(C)CCCCC(=O)N[C@@H](CCN)C(=O)N[C@H](C(=O)N[C@@H](CN)C(=O)N[C@H]1CCNC(=O)[C@H]([C@@H](C)O)NC(=O)[C@H](CCN)NC(=O)[C@H](CCN)NC(=O)[C@H]([C@@H](C)OCS(=O)(=O)O)NC(=O)[C@@H](Cc2ccccc2)NC(=O)[C@H](CCN)NC1=O)[C@@H](C)O` [Compound 114, 6-methylheptanoyl-Dab-Thr-Dap-ring(4-10)[Dab-Dab-D-Phe-Thr(CH2SO3H)-Dab-Dab-Thr]] ({Heptanoyl(6-Me)}-[Dab]T[Dap][Dab][Dab][dF]T(Sulfomethyl)[Dab][Dab]T; lactam 4-C), for which the IC50 at 72 h in [1] was > 500 µg/mL. Also, the MIC is reported as 0.06 µg/mL (≈ 0.0477 µM) in data set [2]; 0.03 µg/mL (≈ 0.0239 µM) in [3]; 0.125 µg/mL (≈ 0.0994 µM) in data set [4]; 0.06 µg/mL (≈ 0.0477 µM) in data set [5]; 0.125 µg/mL (≈ 0.0994 µM) in data set [6]; 0.03 µg/mL (≈ 0.0239 µM) in [7]. Besides, the MIC in data set [8] and in data set [9] was 0.25 µg/mL (≈ 0.199 µM) in each case.

Regarding `CCCCCCC(=O)N[C@@H](CCN)C(=O)N[C@H](C(=O)N[C@H](CN)C(=O)N[C@H]1CCNC(=O)[C@H]([C@@H](C)O)NC(=O)[C@H](CCN)NC(=O)[C@H](CCN)NC(=O)[C@H]([C@@H](C)O)NC(=O)[C@@H](Cc2ccccc2)NC(=O)[C@H](CCN)NC1=O)[C@@H](C)O` [Compound 4, Heptanoyl-Dab-Thr-D-Dap-ring(4-10)[Dab-Dab-D-Phe-Thr-Dab-Dab-Thr]] (Heptanoyl-[Dab]T[dDap][Dab][Dab][dF]T[Dab][Dab]T; lactam 4-C), in [1], the IC50 at 72 h was > 500 µg/mL. In addition, the MIC in [2], in [3], in [4], in data set [5], in data set [6] and in data set [7] was 0.03 µg/mL (≈ 0.0261 µM) each time. The results for the MIC in data set [8] and in [9] were 0.03 µg/mL (≈ 0.0261 µM) and 0.25 µg/mL (≈ 0.218 µM), respectively.

In turn, `CC[C@H](C)CCCCC(=O)N[C@@H](CCN)C(=O)N[C@H](C(=O)N[C@H](CCCN)C(=O)N[C@H]1CCNC(=O)[C@H]([C@@H](C)O)NC(=O)[C@H](CCN)NC(=O)[C@H](CCN)NC(=O)[C@H](CC(C)C)NC(=O)[C@@H](Cc2ccccc2)NC(=O)[C@H](CCN)NC1=O)[C@@H](C)O` [Compound 41, (S)-6-methyloctanoyl-Dab-Thr-D-Orn-ring(4-10)[Dab-Dab-D-Phe-Leu-Dab-Dab-Thr]] (X1-[Dab]T[dOrn][Dab][Dab][dF]L[Dab][Dab]T; lactam 4-C) returned an IC50 at 72 h in data set [1] of 259 ± 7.8 µg/mL (≈ 212 µM). For the same compound, the MIC stood at 0.125 µg/mL (≈ 0.103 µM) in data set [2]; 0.03 µg/mL (≈ 0.0246 µM) in [3]; 0.125 µg/mL (≈ 0.103 µM) in [4]; 0.06 µg/mL (≈ 0.0493 µM) in data set [5]; 0.06 µg/mL (≈ 0.0493 µM) in [6]; 0.03 µg/mL (≈ 0.0246 µM) in data set [7]. Further, the MIC was found to be 0.25 µg/mL (≈ 0.205 µM) in data set [8] and 1 µg/mL (≈ 0.821 µM) in [9].

Take `CCCCCCCC(=O)N[C@@H](CCN)C(=O)N[C@H](C(=O)N[C@H](CO)C(=O)N[C@H]1CCNC(=O)[C@H]([C@@H](C)O)NC(=O)[C@H](CCCN)NC(=O)[C@H](CCN)NC(=O)[C@H]([C@@H](C)O)NC(=O)[C@@H](Cc2ccccc2)NC(=O)[C@H](CCN)NC1=O)[C@@H](C)O` [Compound 88, Octanoyl-Dab-Thr-D-Ser-ring(4-10)[Dab-Dab-D-Phe-Thr-Dab-Orn-Thr]] (Octanoyl-[Dab]T[dS][Dab][Dab][dF]T[Dab][Orn]T; lactam 4-C): in data set [1], the IC50 at 72 h is > 500 µg/mL. Moreover, the MIC in data set [2] was 0.06 µg/mL (≈ 0.0509 µM); in data set [3], 0.03 µg/mL (≈ 0.0255 µM); in data set [4], 0.5 µg/mL (≈ 0.424 µM); in data set [5] it was ≤0.03 µg/mL; in [6], 0.25 µg/mL (≈ 0.212 µM); in data set [7], 0.03 µg/mL (≈ 0.0255 µM). Moreover, the MIC is >64 µg/mL in [8] and 64 µg/mL (≈ 54.3 µM) in data set [9].

As for `CC(C)CCCCC(=O)N[C@@H](CCCN)C(=O)N[C@H](C(=O)N[C@H](CO)C(=O)N[C@H]1CCNC(=O)[C@H]([C@@H](C)O)NC(=O)[C@H](CCN)NC(=O)[C@H](CCN)NC(=O)[C@H]([C@@H](C)O)NC(=O)[C@@H](Cc2ccccc2)NC(=O)[C@H](CCN)NC1=O)[C@@H](C)O` [Compound 57, 6-methylheptanoyl-Orn-Thr-D-Ser-ring(4-10)[Dab-Dab-D-Phe-Thr-Dab-Dab-Thr]] ({Heptanoyl(6-Me)}-[Orn]T[dS][Dab][Dab][dF]T[Dab][Dab]T; lactam 4-C), the IC50 at 72 h in [1] was > 500 µg/mL. For the same compound, the MIC worked out at 0.25 µg/mL (≈ 0.212 µM) in [2]; 0.125 µg/mL (≈ 0.106 µM) in data set [3]; 0.5 µg/mL (≈ 0.424 µM) in data set [4]; 0.25 µg/mL (≈ 0.212 µM) in data set [5]; 0.25 µg/mL (≈ 0.212 µM) in data set [6]; 0.125 µg/mL (≈ 0.106 µM) in data set [7]. The values for the MIC in data set [8] and in [9] were 64 µg/mL (≈ 54.3 µM) and 4 µg/mL (≈ 3.39 µM), respectively.
